Assay results published in US11655297B2, “ILDR2 antagonists and combinations thereof” (Bayer Aktiengesellschaft, priority 2017, dated 2023).

Experiments:
[1] = test system: B16-F10 tumor model; assay: B16-F10 therapeutic treatment, combination with aPD-L1; format: in vivo, mouse
From the text: (§1) The following syngeneic tumor models were subcutaneously used in in vivo experiments: B16-F10 cells represent a mouse melanoma cell line derived from the skin of C57BL/6J mice. CT26 is an N-nitroso-N-methylurethane-(NNMU) induced, undifferentiated colon carcinoma cell line. It is a fibroblast cell type and derives from BALB/c mice. 3C9-D11-H11 cells are hybridoma B lymphocytes generated by fusion of spleen cells with Sp2/0-Ag14 myeloma cells. The spleen cells derive from BALB/c mice that were immunized with purified porcine parvovirus (PPV).

[2] = test system: B16-F10 OVA tumor model; assay: B16-F10 OVA model, combination with Docetaxel; details: for tumor size of the treatment group vs. Control (T/C): B16-F10 OVA, BAY 1905254 10 mg/kg i.p. q3d×3, Docetaxel once 20 mg/kg i.v.; for Mean tumor size: BAY 1905254 10 mg/kg i.p. q3d×3 starting day 8, Docetaxel once 20 mg/kg i.v. on day 8
Protocol: Eight weeks old female C57B1/6N Cr1 BR mice (body weight 18-20 g) from Charles River Deutschland, Sulzfeld were used for the B16-F10 OVA tumor model. The model is a derivative of the B16F10 cell line expressing the allo-antigen ovalbumin which can be recognized by antigen-specific T cells. The experiment was initiated after an acclimatization period of 5 days. Animals were kept in a 12-hour light/dark cycle. Food and water was available ad libitum. Housing temperature was maintained at 21° C. Mice (n=12 per group) were s.c. inoculated with 1×10^4 B16F10 OVA tumor cells into the left flank and assigned to experimental groups. At treatment initiation, animals were marked and each cage was labeled with the cage number, study number and the number of animals per cage.
Agents were dosed i.p. at 10 mg/kg q3d×3, starting day 8.

[3] = test system: B16F10 syngeneic mouse model; assay: Tumor shrinking activity in B16F10 syngeneic mouse model (FIG. 9A); format: in vivo
Protocol: Tumor shrinking activity is measured as decrease of tumor volume, relative to an isotype control.
To determine the anti-tumor efficacy, such as for example, the tumor shrinking effect of the respective binders, two syngeneic mouse models (B16F10, CT26) were used as discussed above.

[4] = test system: B16F10 OVA tumor model; assay: B16F10 OVA model, combination with OVA vaccine and CpG oligo; format: in vivo, mouse; details: for Mean tumor size: BAY 1905254 10 mg/kg i.p. q3d×3 starting day 8, 50 μg OVA + 10 μg CPG s.c. on day 9
Protocol: 50 μg OVA (in 50 μl)+10 μg CPG (in 10 μl)+140 μl PBS=200 μl/mouse was applied subcutaneously to the left flank adjacent to the tumor, on day 9. The CpG oligonucleotide was ODN 1826 (5′-[…]-3′; bases are phosphorothioate/nuclease resistant) that is specific for mouse TLR9 was used (Invivogen MA-1826-5).

[5] = test system: CT26 tumor model; assay: CT26 therapeutic, combination with aPD-L1; format: in vivo, mouse; details: aPD-L1 10 mg/kg
From the text: as §1

[6] = test system: 3C9-D11-H11 tumor model; assay: 3C9-D11-H11 therapeutic, combination with aPD-L1; format: in vivo, mouse
From the text: as §1

[7] = test system: B16F10 tumor model; assay: B16-F10 preventive treatment, syngeneic tumor model; format: in vivo, mouse; details: for Mean tumor size: 10 mg/kg i.p. q3d×6 from tumor inoculation
From the text: as §1

[8] = test system: CT26 syngeneic mouse model; assay: Tumor shrinking activity in CT26 syngeneic mouse model (FIG. 9C)
Protocol: FIG. 9C: Tumor shrinking activity of selected anti ILDR2 antibodies according to the present invention in a CT26 syngeneic mouse model. Tumor shrinking activity is measured as decrease of tumor volume, relative to an Isotype control.

[9] = test system: CT26 C4.4a tumor model; assay: CT26 C4.4a model, combination with C4.4A ADC; format: in vivo, mouse; details: for Mean tumor size: BAY 1905254 10 mg/kg i.p. q3d×5, C4.4A ADC 10 mg/kg i.v. q4d×3, starting day 6
Protocol: This model is a derivative of the parental CT26 model expressing murine C4.4a on the surface of the tumor cells.
C4.4A ADC (antibody-drug conjugate BAY1129980), which is composed of an antibody against a structural homolog of the urokinase-type plasminogen activator receptor (uPAR) and tumor-associated antigen, C4.4a, and conjugated with a cytotoxic agent, was dosed 10 mg/kg i.v. q4d×3, starting day 6.

[10] = test system: IL-2 secretion of CD4 T cells co-cultured with M-CSF mature monocytes; assay: Mixed lymphocyte reaction (MLR), antibody-evoked IL-2 secretion by Elisa; format: cell-based
Protocol: To determine the effect of these antibodies on ILDR2 function an immunomodulation assay was carried out, namely a mixed lymphocyte reaction assay. The mixed lymphocyte reaction (MLR) is a test in which populations of lymphocytes are mixed together, and the resulting reactions are measured. Technically, it is an ex-vivo cellular immune assay that occurs between two allogeneic lymphocyte populations. In a one-way MLR, only one lymphocyte population can respond or proliferate. In a two-way MLR, both populations can proliferate. MLR's are performed to assess how T cells react to external stimuli, e.g., exposure to immune checkpoint inhibitors, like anti PD-1 antibodies (Wang et al 2014) and anti-PD-L1 antibodies. In the present context, antibody-evoked IL-2 secretion was measured with this assay.
In the present case, CD4 T cells from one donor were co-cultured with M-CSF mature monocytes from another donor in the presence of various ILDR2 antibodies, a function-blocking PD-L1 antibody or an isotype control for 5 days. […] Results are shown in FIG. 9B and the following table 3.

BAY1905254: anti ILDR2 antibody, heavy chain SEQ ID NO:42, light chain SEQ ID NO:43
tumor growth vs. isotype control (in words) ([1]; B16-F10 therapeutic, 10 mg/kg q3d i.p., 2 way ANOVA): No monotherapy efficacy
tumor size of the treatment group vs. isotype control (T/C) ([1]; B16-F10 therapeutic, 10 mg/kg i.p. q3d×5 starting d3): 1.08
Mean tumor size ([1]; day 6 post inoculation, 10 mg/kg i.p. q3d×5 starting d3): 76.07 mm3
Mean tumor size ([1]; day 8 post inoculation, 10 mg/kg i.p. q3d×5 starting d3): 80.52 mm3
Mean tumor size ([1]; day 10 post inoculation, 10 mg/kg i.p. q3d×5 starting d3): 158.01 mm3
Mean tumor size ([1]; day 13 post inoculation, 10 mg/kg i.p. q3d×5 starting d3): 479.92 mm3
Mean tumor size ([1]; day 15 post inoculation, 10 mg/kg i.p. q3d×5 starting d3): 986.99 mm3
tumor size of the treatment group vs. Control (T/C) [2]: 0.86
tumor growth vs. isotype control (in words) ([2]; B16F10 OVA, BAY1905254 10 mg/kg q3d i.p., Docetaxel 20 mg/kg i.v. once, 2 way ANOVA): moderate delay of tumor growth
Mean tumor size ([2]; day 8 post inoculation): 86.26 mm3
Mean tumor size ([2]; day 11 post inoculation): 97.06 mm3
Mean tumor size ([2]; day 14 post inoculation): 207.75 mm3
Mean tumor size ([2]; day 16 post inoculation): 382.66 mm3
tumor shrinkage measured against an isotype control (in words) [3]: do
tumor size of the treatment group vs. Control (T/C) ([4]; B16F10 OVA, BAY 1905254 10 mg/kg i.p. q3d×3, OVA + CPG s.c. once): 0.66
tumor growth vs. isotype control (in words) ([4]; B16F10 OVA, BAY1905254 10 mg/kg q3d i.p., OVA and CPG, 2 way ANOVA): moderate delay of tumor growth
Mean tumor size ([4]; day 9 post inoculation): 66.09 mm3
Mean tumor size ([4]; day 11 post inoculation): 137.52 mm3
Mean tumor size ([4]; day 14 post inoculation): 314.75 mm3
Mean tumor size ([4]; day 16 post inoculation): 483.38 mm3
Mean tumor size ([4]; day 18 post inoculation): 711.93 mm3
tumor size of the treatment group vs. isotype control (T/C) ([5]; CT26, BAY1905254 3 mg/kg i.p. q3d×3 starting d7): 0.95
tumor growth vs. isotype control (in words) ([5]; CT26, BAY1905254 3 mg/kg q3d i.p. from d7, 2 way ANOVA): no delay of tumor growth
Mean tumor size ([5]; day 7 post inoculation, BAY1905254 3 mg/kg i.p. q3d×3 starting d7): 136.38 mm3
Mean tumor size ([5]; day 10 post inoculation, BAY1905254 3 mg/kg i.p. q3d×3 starting d7): 227.41 mm3
Mean tumor size ([5]; day 13 post inoculation, BAY1905254 3 mg/kg i.p. q3d×3 starting d7): 367.22 mm3
Mean tumor size ([5]; day 15 post inoculation, BAY1905254 3 mg/kg i.p. q3d×3 starting d7): 576.28 mm3
tumor size of the treatment group vs. isotype control (T/C) ([6]; 3C9-D11-H11, 10 mg/kg i.p. q3d×5 starting d8): 0.87
tumor growth vs. isotype control (in words) ([6]; 3C9-D11-H11, 10 mg/kg q3d i.p. from d8, 2 way ANOVA): not the case
Mean tumor size ([6]; day 7 post inoculation, 10 mg/kg i.p. q3d×5 starting d8): 63.28 mm3
Mean tumor size ([6]; day 10 post inoculation, 10 mg/kg i.p. q3d×5 starting d8): 67.18 mm3
Mean tumor size ([6]; day 14 post inoculation, 10 mg/kg i.p. q3d×5 starting d8): 198.87 mm3
Mean tumor size ([6]; day 16 post inoculation, 10 mg/kg i.p. q3d×5 starting d8): 314.06 mm3
Mean tumor size ([6]; day 18 post inoculation, 10 mg/kg i.p. q3d×5 starting d8): 574.54 mm3
Mean tumor size ([6]; day 21 post inoculation, 10 mg/kg i.p. q3d×5 starting d8): 1377.9 mm3
tumor size of the treatment group vs. isotype control (T/C) ([7]; B16-F10 preventive, 10 mg/kg i.p. q3d×6): 0.63
tumor growth vs. isotype control (in words) ([7]; B16F10, 10 mg/kg i.p., start of treatment d0, 2 way ANOVA): significantly delayed
Mean tumor size ([7]; day 3 post inoculation): 34.5 mm3
Mean tumor size ([7]; day 6 post inoculation): 77.3 mm3
Mean tumor size ([7]; day 8 post inoculation): 90.1 mm3
Mean tumor size ([7]; day 11 post inoculation): 286.8 mm3
Mean tumor size ([7]; day 13 post inoculation): 389.2 mm3
Mean tumor size ([7]; day 15 post inoculation): 1059.9 mm3
Mean tumor size ([7]; day 17 post inoculation): 1204 mm3
anti-tumor activity in an in vivo tumor model compared with anti PD-L1 antibody (in words) [8]: comparable to that of an anti PD-L1 antibody
tumor size of the treatment group vs. Control (T/C) ([9]; CT26 C4.4a, BAY 1905254 10 mg/kg i.p. q3d×5, C4.4A ADC 10 mg/kg i.v. q4d×3): 1.13
tumor growth vs. isotype control (in words) ([9]; FIG. 8, BAY1905254 10 mg/kg i.p., C4.4A ADC 10 mg/kg i.v., from d6, 2 way ANOVA): does not lead to a delay in tumor growth
Mean tumor size ([9]; day 6 post inoculation): 56.89 mm3
Mean tumor size ([9]; day 10 post inoculation): 141.28 mm3
Mean tumor size ([9]; day 12 post inoculation): 220.99 mm3
Mean tumor size ([9]; day 14 post inoculation): 260.95 mm3
Mean tumor size ([9]; day 17 post inoculation): 566.58 mm3
Mean tumor size ([9]; day 19 post inoculation): 706.01 mm3
IL2 concentration (% over isotype control) ([10]; MLR, 5 days, supernatant Elisa): 91 +/− 11%
IL-2 secretion / cytokine induction in MLR (in words) ([10]; vs isotype control or anti PD-L1 antibody): do not mediate IL-2 induction

CC(=O)O[C@@]12CO[C@@H]1C[C@H](O)[C@@]1(C)C(=O)[C@H](O)C3=C(C)[C@@H](OC(=O)[C@H](O)[C@@H](NC(=O)OC(C)(C)C)c4ccccc4)C[C@@](O)([C@@H](OC(=O)c4ccccc4)[C@H]21)C3(C)C [Docetaxel, reference compound]
tumor size of the treatment group vs. Control (T/C) [2]: 0.74
Mean tumor size ([2]; day 8 post inoculation): 86.56 mm3
Mean tumor size ([2]; day 11 post inoculation): 100.78 mm3
Mean tumor size ([2]; day 14 post inoculation): 165.78 mm3
Mean tumor size ([2]; day 16 post inoculation): 305.33 mm3
